The numbers were not newly measured in US6225288A, “Gamma-ketoacid dipeptides as inhibitors of caspase-3” (Merk Frosst Canada & Co., priority 2000, dated 2001), which cites them from elsewhere.

In one series the target is T1, caspase-3 (Homo sapiens, UniProt P42574).
T1 sequence (P42574 29-175 limits assumed): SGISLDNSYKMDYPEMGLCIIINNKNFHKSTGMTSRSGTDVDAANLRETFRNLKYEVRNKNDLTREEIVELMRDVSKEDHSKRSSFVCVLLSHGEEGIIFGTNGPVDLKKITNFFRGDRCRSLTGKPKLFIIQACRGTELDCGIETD
T1 sequence (P42574 176-277 limits assumed): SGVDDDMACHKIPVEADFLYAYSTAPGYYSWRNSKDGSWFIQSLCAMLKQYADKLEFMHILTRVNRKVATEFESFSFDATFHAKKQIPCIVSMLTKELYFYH

The target in the next series is T2, caspase-1 (Homo sapiens, UniProt P29466).
T2 sequence (P29466 120-297 limits assumed): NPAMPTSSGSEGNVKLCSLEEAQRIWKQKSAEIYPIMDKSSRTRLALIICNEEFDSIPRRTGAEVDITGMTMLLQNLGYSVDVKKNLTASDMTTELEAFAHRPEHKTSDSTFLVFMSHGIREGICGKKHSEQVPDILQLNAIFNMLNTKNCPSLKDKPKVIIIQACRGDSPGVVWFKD
T2 sequence (P29466 317-404 limits assumed): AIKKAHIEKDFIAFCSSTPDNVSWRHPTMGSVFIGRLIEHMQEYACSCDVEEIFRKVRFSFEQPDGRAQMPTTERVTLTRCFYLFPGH

With Ac-YVAD-CHO, the Ki on caspase-3 is 12 µM; on caspase-1 it was less than 0.001 µM.

As a reminder, the Ki is the dissociation constant of the complex between target and ligand, obtained from inhibition or displacement.
